Like-named read-outs stand apart in the source and are kept apart here.
Tests used:
[1] = test system: Conscious guinea pigs exposed to an aerosol of methacholine; test: Methacholine aerosol collapse time in conscious guinea pigs (anticholinergic test); format: in vivo; details: 25 mg/kg intraperitoneally, 10 minutes methacholine aerosol; for (Minutes Protection): collapse time, Control 1.9 to 2.0; for (Minutes Protection), given in words: time not given
Protocol: Conscious guinea pigs, six at a time, are put into a sealed chamber and exposed for 10 minutes to an aerosol of methacholine.

[2] = test system: pilocarpine-induced bronchospasm and salivary flow in mongrel dogs; test: Pilocarpine-induced bronchospasm and salivation in anesthetized mongrel dogs; format: in vivo; details: for ED50: Canis lupus familiaris, anesthetized dogs, pilocarpine nitrate 0.2 mg/kg/hr infusion, cumulative IV doses; for Pulmonary Selectivity*: value >1 indicates the compound is more potent as a bronchodilator than as an antisecretory agent
Protocol: In an additional testing procedure, mongrel dogs of either sex, 10.6 to 15.3 kg, are anesthetized with sodium pentobarbital, 30 mg/kg IV and then prepared for the monitoring of pulmonary mechanics. A Buxco pulmonary mechanics computer is used to calculate pulmonary resistance, dynamic compliance, and tidal volume from transpulmonary pressure and flow data. Respiratory rate, heart rate and mean arterial blood pressure are also monitored. The femoral vein is cannulated for the delivery of drugs.
Pilocarpine nitrate (0.2 mg/kg/hr) is than infused to induce a bronchospasm and salivary flow. […] Salivary output is collected from a catheterized Wharton's duct at five minute intervals. After salivation has stabilized, three control collections are taken at five minute intervals followed by a series of cumulative IV doses of test compound (1, 3, 10, 30, 100, 300, 1000, 3000, and 10,000 μg/kg) that are injected every five minutes for 45 minutes.
The percent inhibition of both the bronchospasm and salivation are calculated for each dose with a return to prepilocarpine resistance levels or cessation of salivation equal to a 100% inhibition.

[3] = inhibition of bronchospasm, read-out: ID50 μg/kg Bronchospasm
[4] = inhibition of salivation, read-out: ID50 μg/kg Salivation

Row | Compound | (Minutes Protection) [1] [min] | other results
1 | Cc1ccc2c3c(c(=O)oc2c1)CN(CCN1CC2CCCC(C2)C1)CC3 [R1=H, R2=Me, R3=H, X=drawing 12, 3-[2-(3-Azabicyclo[3.3.1]non-3-yl)ethyl]-1,2,3,4-tetrahydro-8-methyl-5H-[1]benzopyrano[3,4-c]pyridin-5-one] | 3.1 | –
2 | COc1ccc2c3c(c(=O)oc2c1)CN(CCN1CC2CCC(CC2)C1)CC3.Cl.Cl [R1=H, R2=MeO, R3=H, X=drawing 10, 3-[2-(3-Azabicyclo[3.2.2]non-3-yl)ethyl]-1,2,3,4-tetrahydro-8-methoxy-5H-[1]benzopyrano[3,4-c]pyridin-5-one, dihydrochloride] | 6.0 | –
3 | COc1ccc2c3c(c(=O)oc2c1)CN(CCN1CC2CCC1CC2)CC3 [R1=H, R2=MeO, R3=H, X=drawing 11, 3-[2-(2-Azabicyclo[2.2.2]oct-2-yl)ethyl]-1,2,3,4-tetrahydro-8-methoxy-5H-[1]benzopyrano[3,4-c]pyridin-5-one] | 10.0 | –
4 | COc1ccc2c3c(c(=O)oc2c1)CN(CCN1CC2CCCC(C2)C1)CC3 [R1=H, R2=MeO, R3=H, X=drawing 12, 3-[2-(3-Azabicyclo[3.3.1]non-3-yl)ethyl]-1,2,3,4-tetrahydro-8-methoxy-5H-[1]benzopyrano[3,4-c]pyridin-5-one] | 7.3 | –
5 | COc1ccc2c3c(c(=O)oc2c1)CN(CCN1CC2CCC(CC2)C1)CC3 [R1=H, R2=MeO, R3=H, X=drawing 14] | – | ED50 [2, 3]: 35 µg/kg; ED50 [2, 4]: 104 µg/kg; Pulmonary Selectivity* [2]: 3
6 | COc1ccc2c3c(c(=O)oc2c1)CN(CCN1CC2CCC1CC2)CC3 [R1=H, R2=MeO, R3=H, X=drawing 16] | – | ED50 [2, 3]: 63 µg/kg; ED50 [2, 4]: 102 µg/kg; Pulmonary Selectivity* [2]: 1.61
7 | COc1ccc2c3c(c(=O)oc2c1OC)CN(CCN1CC2CCC(CC2)C1)CC3.Cl.Cl [R1=H, R2=MeO, R3=MeO, X=drawing 10, 3-[2-(3-Azabicyclo[3.2.2]non-3-yl)ethyl]-1,2,3,4-tetrahydro-7,8-dimethoxy-5H-[1]benzopyrano[3,4-c]pyridin-5-one dihydrochloride] | 3.0 | –
8 | O=c1oc2cc(O)ccc2c2c1CN(CCN1CC3CCC(CC3)C1)CC2 [R1=H, R2=OH, R3=H, X=drawing 10] | 6.1 | –
9 | Cl.Cl.O=c1oc2cc(-c3ccccc3)ccc2c2c1CN(CCN1CC3CCC(CC3)C1)CC2 [R1=H, R2=Ph, R3=H, X=drawing 10, 3-[2-(3-Azabicyclo[3.2.2]non-3-yl)ethyl]-1,2,3,4-tetrahydro-8-phenyl-5H-[1]benzopyrano[3,4-c]pyridin-5-one, dihydrochloride] | 2.1 | –
10 | Cc1cc2oc(=O)c3c(c2cc1C)CCN(CCN1CC2CCC(CC2)C1)C3 [R1=Me, R2=Me, R3=H, X=drawing 10, 3-[2-(3-Azabicyclo[3.2.2]non-3-yl)ethyl]-1,2,3,4-tetrahydro-8,9-dimethyl-5H-[1]benzopyrano[3,4-c]pyridin-5-one] | 5.1 | –
11 | COc1cc2oc(=O)c3c(c2cc1OC)CCN(CCN1CC2CCC(CC2)C1)C3.Cl.Cl [R1=MeO, R2=MeO, R3=H, X=drawing 10, 3-[2-(3-Azabicyclo[3.2.2]non-3-yl)ethyl]-1,2,3,4-tetrahydro-8,9-dimethoxy-5H-[1]benzopyrano[3,4-c]pyridin-5-one dihydrochloride] | – | (Minutes Protection), given in words [1]: Active
12 | COc1cc2oc(=O)c3c(c2cc1OC)CCN(CCN1CC2CCC1CC2)C3 [R1=MeO, R2=MeO, R3=H, X=drawing 11, 3-[2-(2-Azabicyclo[2.2.2]oct-2-yl)ethyl]-1,2,3,4-tetrahydro-8,9-dimethoxy-5H-[1]benzopyrano[3,4-c]pyridine-5-one] | 7.6 | –
13 | COc1cc2oc(=O)c3c(c2cc1OC)CCN(CCN1CC2CCCC(C2)C1)C3 [R1=MeO, R2=MeO, R3=H, X=drawing 12, 3-[2-(3-Azabicyclo[3.3.1]non-3-yl)ethyl]-1,2,3,4-tetrahydro-8,9-dimethoxy-5H-[1]benzopyrano[3,4-c]pyridin-5-one] | 6.6 | –
14 | COc1cc2oc(=O)c3c(c2cc1OC)CCN(CCN1CC2CCC(CC2)C1)C3 [R1=MeO, R2=MeO, R3=H, X=drawing 15] | – | ED50 [2, 3]: 113 µg/kg; ED50 [2, 4]: 530 µg/kg; Pulmonary Selectivity* [2]: 4.7
15 | Cc1cc2oc(=O)c3c(c2cc1N)CCN(CCN1CC2CCC(CC2)C1)C3 [R1=NH2, R2=Me, R3=H, X=drawing 10, 9-Amino-3-[2-(3-azabicyclo[3.2.2]non-3-yl)ethyl]-1,2,3,4-tetrahydro-8-methyl-5H-[1]benzopyrano[3,4-c]pyridin-5-one] | 1.9 | –
16 | CC(=O)Nc1cc2c3c(c(=O)oc2cc1C)CN(CCN1CC2CCC(CC2)C1)CC3 [R1=NHCOCH3, R2=Me, R3=H, X=drawing 10, N-{3-[2-(3-Azabicyclo[3.2.2]non-3-yl)ethyl]-1,2,3,4-tetrahydro-8-methyl-5-oxo-2H-[1]benzopyrano[3,4-c]pyridin-9-yl}-acetamide] | – | (Minutes Protection), given in words [1]: Active
17 | Cc1cc2oc(=O)c3c(c2cc1NC(=O)c1ccccc1)CCN(CCN1CC2CCC(CC2)C1)C3 [R1=NHCOPh, R2=Me, R3=H, X=drawing 10, N-{3-[2-(3-Azabicyclo[3.2.2]non-3-yl)ethyl]-1,3,4,5-tetrahydro-8-methyl-5-oxo-2H-[1]benzopyrano[3,4-c]pyridin-9-yl}-benzamide] | 3.8 | –
18 | Cc1cc2oc(=O)c3c(c2cc1[N+](=O)[O-])CCN(CCN1CC2CCC(CC2)C1)C3 [R1=NO2, R2=Me, R3=H, X=drawing 10, 3-[2-(3-Azabicyclo[3.2.2]non-3-yl)ethyl]-1,2,3,4-tetrahydro-8-methyl-9-nitro-5H-[1]benzopyrano[3,4-c]pyridin-5-one] | 1.9 | –
19 | Br.Br.O=c1oc2cc(O)c(O)cc2c2c1CN(CCN1CC3CCC(CC3)C1)CC2 [R1=OH, R2=OH, R3=H, X=drawing 10, 3-[2-(3-Azabicyclo[3.2.2]non-3-yl)ethyl]-1,2,3,4-tetrahydro-8,9-dihydroxy-5H-[1]benzopyrano[3,4-c]pyridin-5-one dihydrobromide] | 2.1 | –
